Measured values reported in ChEMBL document CHEMBL4725368, “Novel C-7 carbon substituted fourth generation fluoroquinolones targeting N. Gonorrhoeae infections” (Bioorg Med Chem Lett, 2020).
Converted amounts (≈) assume the structure as drawn.

How the values were obtained:
Pseudomonas aeruginosa = assay: Antibacterial activity against Pseudomonas aeruginosa PAO1 assessed as reduction in bacterial growth by CLSI protocol based microdilution method; assay type: functional
Neisseria gonorrhoeae [1] = assay: Antibacterial activity against Neisseria gonorrhoeae ATCC 49226 assessed as reduction in bacterial growth by CLSI protocol based microdilution method; assay type: functional
Neisseria gonorrhoeae [2] = assay: Antibacterial activity against fluoroquinolone-resistant Neisseria gonorrhoeae WHO L harboring multiple point mutations at DNA gyrase and topoisomerase IV and porB1b mutation assessed as reduction in bacterial growth by CLSI protocol based microdilution method; assay type: functional
Acinetobacter baumannii = assay: Antibacterial activity against Acinetobacter baumannii ATCC 19606 assessed as reduction in bacterial growth by CLSI protocol based microdilution method; assay type: functional; details: ATCC 19606 = CIP 70.34 = JCM 6841
Klebsiella pneumoniae = assay: Antibacterial activity against Klebsiella pneumoniae ATCC 700603 assessed as reduction in bacterial growth by CLSI protocol based microdilution method; assay type: functional
Escherichia coli = assay: Antibacterial activity against Escherichia coli ATCC 25922 assessed as reduction in bacterial growth by CLSI protocol based microdilution method; assay type: functional
Staphylococcus aureus = assay: Antibacterial activity against Staphylococcus aureus ATCC 29213 assessed as reduction in bacterial growth by CLSI protocol based microdilution method; assay type: functional
Enterococcus faecalis = assay: Antibacterial activity against Enterococcus faecalis ATCC 29212 assessed as reduction in bacterial growth by CLSI protocol based microdilution method; assay type: functional
[3] = Intrinsic clearance in human liver microsomes; assay type: ADME, Microsome; details: read-out: CLH
[4] = Intrinsic clearance in human hepatocytes assessed per 10^6 cells; assay type: ADME, cell-based, Hepatocyte; details: read-out: CLH
[5] = Acid dissociation constant, pKa of the compound; assay type: physicochemical
hERG (KCNH2) [6] = molecular target: T1, hERG (KCNH2) (Homo sapiens, UniProt Q12809); assay: Inhibition of human ERG at 100 uM relative to control
T1 sequence (Q12809 whole entry): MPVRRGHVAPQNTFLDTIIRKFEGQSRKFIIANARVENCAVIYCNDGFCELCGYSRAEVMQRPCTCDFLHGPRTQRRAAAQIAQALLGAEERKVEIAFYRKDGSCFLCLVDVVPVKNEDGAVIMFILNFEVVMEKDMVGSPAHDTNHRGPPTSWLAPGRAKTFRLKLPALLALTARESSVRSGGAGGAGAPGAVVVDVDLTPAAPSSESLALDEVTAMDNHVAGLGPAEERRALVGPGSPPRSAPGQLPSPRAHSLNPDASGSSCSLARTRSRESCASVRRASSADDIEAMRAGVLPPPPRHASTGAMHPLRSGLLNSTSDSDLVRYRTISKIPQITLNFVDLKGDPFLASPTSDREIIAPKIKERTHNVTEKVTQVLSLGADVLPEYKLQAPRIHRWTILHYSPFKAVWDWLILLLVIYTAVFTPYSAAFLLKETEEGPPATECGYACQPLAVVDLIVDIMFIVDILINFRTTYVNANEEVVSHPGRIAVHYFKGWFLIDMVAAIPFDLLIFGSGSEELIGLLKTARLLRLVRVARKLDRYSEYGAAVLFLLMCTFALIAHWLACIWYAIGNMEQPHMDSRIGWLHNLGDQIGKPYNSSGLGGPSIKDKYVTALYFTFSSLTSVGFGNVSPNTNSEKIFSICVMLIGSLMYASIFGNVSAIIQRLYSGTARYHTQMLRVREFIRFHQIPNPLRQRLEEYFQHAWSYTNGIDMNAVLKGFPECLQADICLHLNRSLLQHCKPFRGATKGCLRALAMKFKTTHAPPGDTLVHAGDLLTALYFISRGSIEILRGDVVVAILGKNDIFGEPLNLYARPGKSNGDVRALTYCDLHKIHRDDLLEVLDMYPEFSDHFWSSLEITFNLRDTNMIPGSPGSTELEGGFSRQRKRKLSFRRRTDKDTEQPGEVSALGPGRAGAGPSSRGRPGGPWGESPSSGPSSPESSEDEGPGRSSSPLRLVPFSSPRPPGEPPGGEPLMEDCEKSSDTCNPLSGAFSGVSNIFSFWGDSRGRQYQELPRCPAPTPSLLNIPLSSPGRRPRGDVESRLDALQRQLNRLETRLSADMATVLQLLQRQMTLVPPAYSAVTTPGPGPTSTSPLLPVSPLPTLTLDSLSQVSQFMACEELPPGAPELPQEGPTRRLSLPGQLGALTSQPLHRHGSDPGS

Cytochrome P450 1A2 = molecular target: T2, Cytochrome P450 1A2 (Homo sapiens, UniProt P05177)
T2 sequence (P05177 whole entry): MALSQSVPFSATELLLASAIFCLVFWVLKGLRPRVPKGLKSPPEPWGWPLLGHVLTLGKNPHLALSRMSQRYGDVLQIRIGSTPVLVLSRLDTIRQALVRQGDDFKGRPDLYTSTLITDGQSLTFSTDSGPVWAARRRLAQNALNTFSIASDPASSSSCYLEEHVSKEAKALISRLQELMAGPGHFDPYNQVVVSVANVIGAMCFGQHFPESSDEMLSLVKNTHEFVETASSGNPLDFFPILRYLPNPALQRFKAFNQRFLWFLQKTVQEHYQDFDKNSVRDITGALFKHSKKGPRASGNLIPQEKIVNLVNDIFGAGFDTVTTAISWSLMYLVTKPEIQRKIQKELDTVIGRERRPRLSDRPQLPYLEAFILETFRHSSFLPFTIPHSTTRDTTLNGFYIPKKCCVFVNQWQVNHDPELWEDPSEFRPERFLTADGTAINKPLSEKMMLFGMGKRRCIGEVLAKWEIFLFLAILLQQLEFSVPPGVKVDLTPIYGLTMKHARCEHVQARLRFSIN
Description: Inhibition of CYP1A2 (unknown origin)

Cytochrome P450 2C19 = Cytochrome P450 2C19 (Homo sapiens, UniProt P33261)
Cytochrome P450 2C19, sequence (P33261 whole entry): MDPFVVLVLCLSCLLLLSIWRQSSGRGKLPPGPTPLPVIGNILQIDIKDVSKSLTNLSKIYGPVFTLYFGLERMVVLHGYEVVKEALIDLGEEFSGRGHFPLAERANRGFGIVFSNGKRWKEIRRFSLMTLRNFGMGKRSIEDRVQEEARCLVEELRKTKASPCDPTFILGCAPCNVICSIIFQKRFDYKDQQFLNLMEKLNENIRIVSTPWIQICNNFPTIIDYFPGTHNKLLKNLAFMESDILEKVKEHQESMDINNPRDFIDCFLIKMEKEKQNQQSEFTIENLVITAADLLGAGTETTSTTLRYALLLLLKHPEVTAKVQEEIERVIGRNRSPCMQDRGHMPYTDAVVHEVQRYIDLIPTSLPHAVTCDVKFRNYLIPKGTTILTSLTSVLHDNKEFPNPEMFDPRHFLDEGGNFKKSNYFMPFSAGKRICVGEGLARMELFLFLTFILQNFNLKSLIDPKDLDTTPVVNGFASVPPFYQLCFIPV
Description: Inhibition of CYP2C19 (unknown origin)

Cytochrome P450 2C9 = Cytochrome P450 2C9 (Homo sapiens, UniProt P11712)
Cytochrome P450 2C9, sequence (P11712 whole entry): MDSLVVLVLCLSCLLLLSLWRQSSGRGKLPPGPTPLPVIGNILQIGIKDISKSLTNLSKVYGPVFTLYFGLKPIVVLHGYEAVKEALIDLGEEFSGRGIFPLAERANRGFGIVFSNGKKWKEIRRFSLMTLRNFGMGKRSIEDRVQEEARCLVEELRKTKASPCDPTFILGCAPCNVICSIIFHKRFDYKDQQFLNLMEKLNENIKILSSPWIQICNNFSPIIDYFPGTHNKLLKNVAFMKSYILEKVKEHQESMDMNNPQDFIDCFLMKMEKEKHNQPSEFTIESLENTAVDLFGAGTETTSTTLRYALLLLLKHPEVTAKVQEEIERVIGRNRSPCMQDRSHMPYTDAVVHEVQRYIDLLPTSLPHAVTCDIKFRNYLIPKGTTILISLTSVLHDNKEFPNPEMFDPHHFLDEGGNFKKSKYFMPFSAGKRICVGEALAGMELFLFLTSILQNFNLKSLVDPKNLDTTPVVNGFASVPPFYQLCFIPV
Description: Inhibition of CYP2C9 (unknown origin)

Cytochrome P450 2D6 = Cytochrome P450 2D6 (Homo sapiens, UniProt P10635)
Cytochrome P450 2D6, sequence (P10635 whole entry): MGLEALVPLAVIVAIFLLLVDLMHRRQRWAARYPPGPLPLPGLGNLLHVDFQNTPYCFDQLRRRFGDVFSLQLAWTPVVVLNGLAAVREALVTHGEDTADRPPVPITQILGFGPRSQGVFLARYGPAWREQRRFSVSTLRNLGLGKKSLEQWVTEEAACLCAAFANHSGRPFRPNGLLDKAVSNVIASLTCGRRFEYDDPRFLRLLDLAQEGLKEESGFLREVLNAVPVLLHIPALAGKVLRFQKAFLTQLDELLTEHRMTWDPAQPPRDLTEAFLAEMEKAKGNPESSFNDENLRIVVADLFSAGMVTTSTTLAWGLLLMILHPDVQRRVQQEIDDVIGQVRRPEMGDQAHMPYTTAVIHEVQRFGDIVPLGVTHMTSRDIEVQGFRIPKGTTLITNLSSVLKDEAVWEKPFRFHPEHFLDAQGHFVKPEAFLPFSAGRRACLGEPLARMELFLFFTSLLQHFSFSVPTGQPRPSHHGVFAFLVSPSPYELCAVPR
Description: Inhibition of CYP2D6 (unknown origin)

Cytochrome P450 3A4 = Cytochrome P450 3A4 (Homo sapiens, UniProt P08684)
Cytochrome P450 3A4, sequence (P08684 whole entry): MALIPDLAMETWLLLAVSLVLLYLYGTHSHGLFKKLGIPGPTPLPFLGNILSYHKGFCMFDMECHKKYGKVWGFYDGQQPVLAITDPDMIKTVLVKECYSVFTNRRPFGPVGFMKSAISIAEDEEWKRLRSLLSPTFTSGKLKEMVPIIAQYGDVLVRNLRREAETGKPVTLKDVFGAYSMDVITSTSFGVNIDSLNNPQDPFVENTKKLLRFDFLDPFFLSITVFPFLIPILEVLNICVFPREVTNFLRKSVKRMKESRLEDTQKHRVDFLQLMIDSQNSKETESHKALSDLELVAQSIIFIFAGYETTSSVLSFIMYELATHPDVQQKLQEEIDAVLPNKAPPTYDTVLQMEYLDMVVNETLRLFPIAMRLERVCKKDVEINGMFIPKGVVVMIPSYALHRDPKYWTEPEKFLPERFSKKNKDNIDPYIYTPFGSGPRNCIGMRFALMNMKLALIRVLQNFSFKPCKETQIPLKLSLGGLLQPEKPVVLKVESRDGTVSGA
Description: Inhibition of CYP3A4 (unknown origin)

in vitro = details: human, plasma
Description: Protein binding in human plasma assessed as free fraction

physchem [7] = assay: physchem
Description: Kinetic solubility of the compound

physchem [8] = details: octanol/water, pH 7.4
Description: Distribution coefficient, logD of the compound at pH 7.4

[9] = Oral bioavailability in human at 400 mg measured every 12 hrs; assay type: ADME, organism-based; details: in vivo
hERG (KCNH2) [10] = molecular target: T1, hERG (KCNH2); assay: Inhibition of human ERG at 30 uM relative to control
[11] = Oral bioavailability in human at 450 mg measured every 12 hrs; assay type: ADME, organism-based; details: in vivo
Neisseria gonorrhoeae [12] = assay: Antibacterial activity against Neisseria gonorrhoeae assessed as reduction in bacterial growth; assay type: functional
[13] = molecular target: Voltage-gated inwardly rectifying potassium channel KCNH2 (Homo sapiens, UniProt Q12809); assay: Inhibition of human ERG up to 185 uM
Voltage-gated inwardly rectifying potassium channel KCNH2, sequence (Q12809 whole entry): as the sequence (Q12809 whole entry) above

Question: What does the source list for `Nc1nc(-n2cc(C(=O)O)c(=O)c3cc(F)c([C@H]4C[C@H](O)C4)c(Cl)c32)c(F)cc1F`?
Answer: MIC (Pseudomonas aeruginosa): 2 µg/mL (≈ 4.55 µM); MIC (Neisseria gonorrhoeae [1]): 0.01 µg/mL (≈ 0.0227 µM); MIC (Neisseria gonorrhoeae [2]): 0.12 µg/mL (≈ 0.273 µM); MIC (Acinetobacter baumannii): 64 µg/mL (≈ 146 µM); MIC (Klebsiella pneumoniae): 8 µg/mL (≈ 18.2 µM); MIC (Escherichia coli): 0.12 µg/mL (≈ 0.273 µM); MIC (Staphylococcus aureus): 0.03 µg/mL (≈ 0.0682 µM); MIC (Enterococcus faecalis): 0.5 µg/mL (≈ 1.14 µM); microsomal CLint [3]: < 5 µL/min/mg; hepatocyte CLint [4]: 6.8 µL/min/1e6 cells; pKa [5]: 5.04; inhibition at 100 µM (hERG (KCNH2) [6]): 18%; IC50 (Cytochrome P450 1A2): > 50 µM; IC50 (Cytochrome P450 2C19): > 50 µM; IC50 (Cytochrome P450 2C9): 41.7 µM; IC50 (Cytochrome P450 2D6): > 50 µM; IC50 (Cytochrome P450 3A4): > 50 µM; fraction unbound (in vitro): 0.105; solubility kinetic (physchem [7]): 59.3 µM (≈ 26.1 µg/mL); logD (physchem [8]): 0.3

Question: Which MIC (Pseudomonas aeruginosa) does the source give for `Nc1nc(-n2cc(C(=O)O)c(=O)c3cc(F)c([C@H]4C[C@@H](O)C4)c(Cl)c32)c(F)cc1F` here?
Answer: Its MIC is 4 µg/mL (≈ 9.1 µM).

Question: And the MIC (Neisseria gonorrhoeae [1])?
Answer: Its MIC is 0.06 µg/mL (≈ 0.136 µM).

Question: And the MIC (Neisseria gonorrhoeae [2])?
Answer: The MIC was 0.12 µg/mL (≈ 0.273 µM).

Question: What about the MIC (Acinetobacter baumannii) of the same compound?
Answer: Its MIC is 16 µg/mL (≈ 36.4 µM).

Question: And the MIC (Klebsiella pneumoniae)?
Answer: The MIC was 4 µg/mL (≈ 9.1 µM).

Question: What about the MIC (Escherichia coli) of the same compound?
Answer: The MIC was 0.12 µg/mL (≈ 0.273 µM).

Question: What about the MIC (Staphylococcus aureus) of the same compound?
Answer: The MIC was 0.03 µg/mL (≈ 0.0682 µM).

Question: What about the MIC (Enterococcus faecalis) of the same compound?
Answer: The MIC was 0.25 µg/mL (≈ 0.568 µM).

Question: What about the microsomal CLint [3] of the same compound?
Answer: Its microsomal CLint is < 5 µL/min/mg.

Question: And the hepatocyte CLint [4]?
Answer: Its hepatocyte CLint is 9.2 µL/min/1e6 cells.

Question: What about the pKa [5] of the same compound?
Answer: Its pKa is 4.96.

Question: What about the inhibition at 100 µM (hERG (KCNH2) [6]) of the same compound?
Answer: Its inhibition at 100 µM is 15%.

Question: What about the IC50 (Cytochrome P450 1A2) of the same compound?
Answer: Its IC50 is > 50 µM.

Question: What about the IC50 (Cytochrome P450 2C19) of the same compound?
Answer: Its IC50 is > 50 µM.

Question: And the IC50 (Cytochrome P450 2C9)?
Answer: The IC50 was > 50 µM.

Question: What about the IC50 (Cytochrome P450 2D6) of the same compound?
Answer: The IC50 was > 50 µM.

Question: What about the IC50 (Cytochrome P450 3A4) of the same compound?
Answer: The IC50 was 24.8 µM.

Question: What about the fraction unbound (in vitro) of the same compound?
Answer: Its fraction unbound is 0.124.

Question: And the solubility kinetic (physchem [7])?
Answer: The solubility kinetic was 44.8 µM (≈ 19.7 µg/mL).

Question: And the logD (physchem [8])?
Answer: Its logD is 0.3.

Question: For `COc1c(N2C[C@@H]3CCCN[C@@H]3C2)c(F)cc2c(=O)c(C(=O)O)cn(C3CC3)c12` [MOXIFLOXACIN], which bioavailability [9] is on record?
Answer: The bioavailability was 92%.

Question: With `Nc1nc(-n2cc(C(=O)O)c(=O)c3cc(F)c(N4CC(N)C4)c(Cl)c32)c(F)cc1F` as the compound, how does the MIC (Pseudomonas aeruginosa) read?
Answer: Its MIC is 0.12 µg/mL (≈ 0.273 µM).

Question: And the MIC (Neisseria gonorrhoeae [1])?
Answer: The MIC was 0.007 µg/mL (≈ 0.0159 µM).

Question: And the MIC (Neisseria gonorrhoeae [2])?
Answer: Its MIC is 0.06 µg/mL (≈ 0.136 µM).

Question: What about the MIC (Acinetobacter baumannii) of the same compound?
Answer: The MIC was 2 µg/mL (≈ 4.55 µM).

Question: And the MIC (Klebsiella pneumoniae)?
Answer: The MIC was 0.25 µg/mL (≈ 0.568 µM).

Question: And the MIC (Escherichia coli)?
Answer: The MIC was 0.001 µg/mL (≈ 0.00227 µM).

Question: And the MIC (Staphylococcus aureus)?
Answer: Its MIC is 0.003 µg/mL (≈ 0.00682 µM).

Question: What about the MIC (Enterococcus faecalis) of the same compound?
Answer: Its MIC is 0.12 µg/mL (≈ 0.273 µM).

Question: What about the microsomal CLint [3] of the same compound?
Answer: The microsomal CLint was < 5 µL/min/mg.

Question: What about the hepatocyte CLint [4] of the same compound?
Answer: The hepatocyte CLint was 3 µL/min/1e6 cells.

Question: What about the pKa [5] of the same compound?
Answer: The pKa was 5.33.

Question: What about the inhibition at 30 µM (hERG (KCNH2) [10]) of the same compound?
Answer: The inhibition at 30 µM was 6%.

Question: What about the IC50 (Cytochrome P450 1A2) of the same compound?
Answer: The IC50 was > 50 µM.

Question: And the IC50 (Cytochrome P450 2C19)?
Answer: The IC50 was > 50 µM.

Question: What about the IC50 (Cytochrome P450 2C9) of the same compound?
Answer: The IC50 was 12.7 µM.

Question: What about the IC50 (Cytochrome P450 2D6) of the same compound?
Answer: Its IC50 is > 50 µM.

Question: What about the IC50 (Cytochrome P450 3A4) of the same compound?
Answer: Its IC50 is 13.6 µM.

Question: What about the fraction unbound (in vitro) of the same compound?
Answer: The fraction unbound was 0.297.

Question: And the solubility kinetic (physchem [7])?
Answer: The solubility kinetic was 3.6 µM (≈ 1.58 µg/mL).

Question: What about the logD (physchem [8]) of the same compound?
Answer: Its logD is -0.3.

Question: For `Nc1nc(-n2cc(C(=O)O)c(=O)c3cc(F)c(N4CC(O)C4)c(Cl)c32)c(F)cc1F` [DELAFLOXACIN], which MIC (Pseudomonas aeruginosa) is on record?
Answer: Its MIC is 1 µg/mL (≈ 2.27 µM).

Question: What about the MIC (Neisseria gonorrhoeae [1]) of the same compound?
Answer: Its MIC is 0.06 µg/mL (≈ 0.136 µM).

Question: What about the MIC (Neisseria gonorrhoeae [2]) of the same compound?
Answer: The MIC was 0.03 µg/mL (≈ 0.0681 µM).

Question: And the MIC (Acinetobacter baumannii)?
Answer: Its MIC is 8 µg/mL (≈ 18.2 µM).

Question: And the MIC (Klebsiella pneumoniae)?
Answer: The MIC was 0.25 µg/mL (≈ 0.567 µM).

Question: And the MIC (Escherichia coli)?
Answer: The MIC was 0.01 µg/mL (≈ 0.0227 µM).

Question: And the MIC (Staphylococcus aureus)?
Answer: The MIC was 0.003 µg/mL (≈ 0.00681 µM).

Question: What about the MIC (Enterococcus faecalis) of the same compound?
Answer: The MIC was 0.03 µg/mL (≈ 0.0681 µM).

Question: What about the microsomal CLint [3] of the same compound?
Answer: The microsomal CLint was < 5 µL/min/mg.

Question: What about the hepatocyte CLint [4] of the same compound?
Answer: The hepatocyte CLint was 3 µL/min/1e6 cells.

Question: What about the pKa [5] of the same compound?
Answer: The pKa was 5.47.

Question: What about the bioavailability [11] of the same compound?
Answer: The bioavailability was 59%.

Question: And the MIC (Neisseria gonorrhoeae [12])?
Answer: The MIC was ≥ 0.008 µg/mL.

Question: And the MIC90 (Neisseria gonorrhoeae [12])?
Answer: The MIC90 was 0.125 µg/mL (≈ 0.284 µM).

Question: And the “inhibition (INH)” value [13]?
Answer: Its value is “Not Active”.

Question: And the inhibition at 100 µM (hERG (KCNH2) [6])?
Answer: Its inhibition at 100 µM is 19%.

Question: What about the IC50 (Cytochrome P450 1A2) of the same compound?
Answer: Its IC50 is > 50 µM.

Question: What about the IC50 (Cytochrome P450 2C19) of the same compound?
Answer: The IC50 was > 50 µM.

Question: What about the IC50 (Cytochrome P450 2C9) of the same compound?
Answer: The IC50 was > 50 µM.

Question: What about the IC50 (Cytochrome P450 2D6) of the same compound?
Answer: Its IC50 is > 50 µM.

Question: What about the fraction unbound (in vitro) of the same compound?
Answer: Its fraction unbound is 0.149.

Question: And the solubility kinetic (physchem [7])?
Answer: The solubility kinetic was 58.1 µM (≈ 25.6 µg/mL).

Question: And the logD (physchem [8])?
Answer: The logD was 0.7.
